Assays:
[1] = tested on: SU-DHL cell line (SU DHL 8); assay: WST 1 colorimetric cell proliferation assay, SU-DHL cell line; assay type: cell-based, human; conditions: for effect of valproic acid pretreatment on cell proliferation (percent growth of treated cells): 48 h pretreatment 1 mM valproic acid
Protocol: (§1) In this example the combined effect of valproic acid and three different compounds as well as the single treatment on the growth of two cell lines were measured by WST 1 assay.
(§2) The cell lines used where: • SU DHL 8: human B cell lymphoma, and • WSU NHL: human B cell lymphoma
The WST 1 colorimetric assay comprised providing suspended cells (5000 cells/well) in the wells of a well plate. Tetrazolium salt (WST 1) was added to the cells and thereby colored the fluid in the wells red. Live cells reduce the tetrazolium salt via intermediate electron acceptors and forms a formazan product and the fluid in the cells turn yellow. The extent of color change reflects the proliferation of the cells and is read out as optical absorbance at 420 nm. […] Additionally, 10% DMSO was used as positive control.
(§3) The cells of each cell line were incubated in a pretreatment step with 1 mM valproic acid for 48 hours followed by a treatment step with the respective compound for 24 or 48 hours, as shown in table 1 below: […]

WSU-NHL cell line = assay: WST 1 colorimetric cell proliferation assay, WSU-NHL cell line; assay type: cell-based, human; conditions: for effect of valproic acid pretreatment on cell proliferation (percent growth of treated cells): 48 h pretreatment 1 mM valproic acid
Protocol: as §1, §2
The WST 1 colorimetric assay comprised providing suspended cells (5000 cells/well) in the wells of a well plate. Tetrazolium salt (WST 1) was added to the cells and thereby colored the fluid in the wells red. Live cells reduce the tetrazolium salt via intermediate electron acceptors and forms a formazan product and the fluid in the cells turn yellow. The extent of color change reflects the proliferation of the cells and is read out as optical absorbance at 420 nm. Both cell lines were determined to be able to tolerate concentrations of up to 1% Dimethyl sulfoxide (DMSO), and this DMSO concentration was used as negative control. Additionally, 10% DMSO was used as positive control.
as §3

[2] = FIG. 2B, 5 μM of compound 48 h after 48 h 1 mM valproic acid, normalized to untreated control cells

N.N.O=C([O-])C1(C(=O)[O-])CCC1.[Pt+2] [carboplatin, Platinum, diammine[1,1-cyclobutanedicarboxylato(2-)-KO,KO″ ]-, (SP-4-2)-]
cells left alive, combination with VPA ([1]; FIG. 4B, 5 μM carboplatin 48 h after 48 h 1 mM VPA, normalized to untreated control cells): about 10 cells
cells left alive, combination with VPA ([1]; FIG. 4B, 25 μM carboplatin 48 h after 48 h 1 mM VPA, normalized to untreated control cells): about 10 cells
effect on cell proliferation after valproic acid pretreatment (WSU-NHL cell line; [2]): Especially significant effects

CCCC(CCC)C(=O)O [valproic acid]
effect of valproic acid pretreatment on cell proliferation (percent growth of treated cells) ([1]; FIG. 3A, then 24 h treatment with the respective compounds, normalized to 1% DMSO treated cells): increased the effect of the 24 h treatment
effect of valproic acid pretreatment on cell proliferation (percent growth of treated cells) ([1]; FIG. 3B, then 24 h treatment with the respective compounds, normalized to untreated control cells): increased the effect of the 24 h treatment
effect of valproic acid pretreatment on cell proliferation (percent growth of treated cells) ([1]; FIG. 4A, then 48 h treatment with the respective compounds, normalized to 1/DMSO treated cells): increased the effect of the 48 h treatment
effect of valproic acid pretreatment on cell proliferation (percent growth of treated cells) ([1]; FIG. 4B, then 48 h treatment with the respective compounds, normalized to untreated control cells): increased the effect of the 48 h treatment
effect of valproic acid pretreatment on cell proliferation (percent growth of treated cells) (WSU-NHL cell line; FIG. 1A, then 24 h treatment with bendamustine, gemcitabine or carboplatin, normalized to 1% DMSO treated cells): increased the effect of the 24 h treatment
effect of valproic acid pretreatment on cell proliferation (percent growth of treated cells) (WSU-NHL cell line; FIG. 1B, then 24 h treatment with the respective compounds, normalized to untreated control cells): increased the effect of the 24 h treatment
effect of valproic acid pretreatment on cell proliferation (percent growth of treated cells) (WSU-NHL cell line; FIG. 2A, then 48 h treatment with the respective compounds, normalized to 1/DMSO treated cells): increased the effect of the 48 h treatment
effect of valproic acid pretreatment on cell proliferation (percent growth of treated cells) (WSU-NHL cell line; FIG. 2B, then 48 h treatment with the respective compounds, normalized to untreated control cells): increased the effect of the 48 h treatment

Nc1ccn([C@@H]2O[C@H](CO)[C@@H](O)C2(F)F)c(=O)n1 [gemcitabine, Cytidine, 2′-deoxy-2′,2′-difluoro-]
cell proliferation, combination with VPA ([1]; FIG. 4A, 25 nM gemcitabine 48 h after 48 h 1 mM VPA, normalized to 1/DMSO treated cells): killed all cancer cells
effect on cell proliferation after valproic acid pretreatment (WSU-NHL cell line; FIG. 1B, 5 nM gemcitabine 24 h after 48 h 1 mM valproic acid, normalized to untreated control cells): Especially significant effects
effect on cell proliferation after valproic acid pretreatment (WSU-NHL cell line; FIG. 2B, 5 nM gemcitabine 48 h after 48 h 1 mM valproic acid, normalized to untreated control cells): Especially significant effects

Cn1c(CCCC(=O)O)nc2cc(N(CCCl)CCCl)ccc21 [bendamustine, 1H-Benzimidazole-2-butanoic acid, 5-[bis(2-chloroethyl)amino]-1-methyl-]
cell proliferation, combination with VPA ([1]; FIG. 4A, 25 μM bendamustine 48 h after 48 h 1 mM VPA, normalized to 1/DMSO treated cells): killed all cancer cells
effect on cell proliferation after valproic acid pretreatment (WSU-NHL cell line; FIG. 1B, 5 μM bendamustine 24 h after 48 h 1 mM valproic acid, normalized to untreated control cells): Especially significant effects
effect on cell proliferation after valproic acid pretreatment (WSU-NHL cell line; [2]): Especially significant effects

— US20250302781A1, “METHOD FOR PRETREATING RELAPSING CANCER” (priority 2022, published 2025)
